Reference: patent publication US4667033A, “Substituted 6-(thien-2-yl)-3(2H)-pyridazinones” (A. Nattermann & Cie GmbH, priority 1983, dated 1987)

What was measured:
imipramin-fixation sites = biological target: T1, imipramin-fixation sites (Rattus norvegicus, UniProt P31652); test: Inhibition of 3H-Imipramin binding (imipramin-fixation sites); settings: for IC50: log-probit-analysis
T1 construct: from tissue
Description: (§1) III. Determination of activity to central nervous system.
(§2) The following compounds have been tested for their activity to benzodiazepin-receptors and imipramin-fixation sites in comparison to the known compounds Amitriptylinoxid and Medazepam:
(§3) The determination of their inhibitory activity has been effected corresponding to H. W. Damm et al., Res. Comm. chem. path. Pharmacol. 22, 597-600 (1978) or, respectively, M. Briley et al., Eur. J. Pharmacol. 72, 377-380 (1981). The separation of the bound from the free ligand concentration is effected by filtration. The used ligands Flunitrazepam and Imipramin has been marked by tritium.
(§4) Half maximum inhibitory values have been determined by means of a […]

[1] = tested on: isolated right-hand atrium; test: Chronotropic effect in spontaneously pulsing right-hand atrium of guinea pigs; set-up: species or system guinea pig; settings: Cavia porcellus, mean percentage change to starting value, six determinations; for activation at 100 µM: 1 × 10^-4 mol/l, A in 1 × 10^-4 molar citric acid, B in tetraglycol and dilute hydrochloric acid
Method: (§5) I. Test to show inotropic effectiveness in the isolated atrium of guinea pigs.
(§6) The measurements have been effected on isolated atria of guinea pigs. The effect to pulse frequency (chronotropy) is determined at the spontaneously pulsing right-hand atrium. The effect to the contractility (inotropy) is determined at the electrically stimulated left-hand atrium. The mean values of the percentage change to the starting value from six different determinations in each test is given hereinafter.

[2] = tested on: isolated left-hand atrium; test: Inotropic effectiveness in electrically stimulated left-hand atrium of guinea pigs; set-up: species or system guinea pig; settings: Cavia porcellus, mean percentage change to starting value, six determinations, read-out: Inotropic Effect; for activation at 100 µM: 1 × 10^-4 mol/l, A in 1 × 10^-4 molar citric acid, B in tetraglycol and dilute hydrochloric acid
Method: as §5, §6

narcotized cat = test: Determination of the myocardial effect in the narcotized cat; assay type: in vivo
Description: II. Determination of the myocardial effect in the narcotized cat.
10 cats of both sexes are narcotized with chloralose-urethane (0.25% urethane, 0.05% chloralose per kilogram). To ease the spontaneous respiration there was effected a tracheotomy. The following hemodynamic parameters were noted down:
The arteriel systolic and diastolic blood pressure by means of a polyethylene cathether in the right-hand Arteria femoralis registered by means of a Statham element type P23 DB. The pulse frequency was obtained from the blood pressure amplitude and registered by means of a cardiotachometer (type EKA-pulse).
The increase of isovolumetric blood pressure was determined by means of a catheter tip manometer of the type PC 350 A of the Millar Company, USA, introduced to the Arteria carotis communis left-ventricullary and was determined by subsequent differentiation (amplifier of Messrs. Sachs).
The known values have been registered continuously by a Beckmann-Dynograph of the type R. There are given the values in an interval of 2 minutes.
The test animals have been heparinized with 500 I.E. of Liquemin®.
The test compounds are dissolved as follows:
Compound A in 50% glycofurol with heating,
Compound B in 10% glycofurol and 5% HCl with heating.
The test compounds have been administered at consecutively increasing dosages at a volume of 0.1 cc./kg. (Arteria femoralis). The total time of injection was […]. The next dose has been administered only after the complete dying-out of the effect of the previous administration.

benzodiazepin-receptors = test: Inhibition of 3H-Flunitrazepam binding (benzodiazepin-receptors); settings: for IC50: log-probit-analysis
Description: as §1, §2, §3, §4

[3] = 1 × 10^-3 mol/l, in tetraglycol and dilute hydrochloric acid

T1 sequence (P31652 whole entry): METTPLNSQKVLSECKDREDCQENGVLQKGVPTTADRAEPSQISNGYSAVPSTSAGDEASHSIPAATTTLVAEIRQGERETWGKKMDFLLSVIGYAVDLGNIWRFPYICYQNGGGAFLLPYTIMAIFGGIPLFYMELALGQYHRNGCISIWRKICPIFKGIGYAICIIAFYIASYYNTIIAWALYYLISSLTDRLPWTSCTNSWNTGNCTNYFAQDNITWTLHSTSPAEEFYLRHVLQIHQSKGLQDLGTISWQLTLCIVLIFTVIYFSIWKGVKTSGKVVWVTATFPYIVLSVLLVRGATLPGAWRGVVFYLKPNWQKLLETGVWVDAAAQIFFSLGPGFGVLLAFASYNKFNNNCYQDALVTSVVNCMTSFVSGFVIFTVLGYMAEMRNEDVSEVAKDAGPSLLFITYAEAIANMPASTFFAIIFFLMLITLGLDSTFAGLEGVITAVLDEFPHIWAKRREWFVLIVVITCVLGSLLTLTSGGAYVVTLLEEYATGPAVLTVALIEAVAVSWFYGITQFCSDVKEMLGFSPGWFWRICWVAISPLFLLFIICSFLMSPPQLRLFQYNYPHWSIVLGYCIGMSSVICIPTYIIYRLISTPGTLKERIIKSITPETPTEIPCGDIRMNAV

C[N+](C)([O-])CCC=C1c2ccccc2CCc2ccccc21 [Amitriptylinoxid, reference compound] was tested, and the IC50 (imipramin-fixation sites) was 24 µM.

For O=c1ccc(-c2ccc(Cn3ccnc3)s2)n[nH]1 [Compound A, 6-[5-(Imidazol-1-yl-methyl)-thien-2-yl]-3(2H)-pyridazinone], the activation at 100 µM [1] was 19%, the activation at 100 µM [2] was 44% and the “Blood Pressure diast.” value (narcotized cat; 0.1 mg/kg i.v.) was -1%. For the same compound, the “Blood Pressure syst.” value (narcotized cat; 0.1 mg/kg i.v.) was “+1%”, the “Myocardial Contractility” value (narcotized cat; 0.1 mg/kg i.v.) was “+24%” and the “Pulse Frequency” value (narcotized cat; 0.1 mg/kg i.v.) was “+1%”. The “Blood Pressure diast.” value (narcotized cat; 0.316 mg/kg i.v.) was -6%, the “Blood Pressure syst.” value (narcotized cat; 0.316 mg/kg i.v.) was 0% and the “Myocardial Contractility” value (narcotized cat; 0.316 mg/kg i.v.) was “+32%”. For the same compound, the “Pulse Frequency” value (narcotized cat; 0.316 mg/kg i.v.) was “+1%”, the “Blood Pressure diast.” value (narcotized cat; 1.0 mg/kg i.v.) was -18% and the “Blood Pressure syst.” value (narcotized cat; 1.0 mg/kg i.v.) was -8%. The “Myocardial Contractility” value (narcotized cat; 1.0 mg/kg i.v.) was “+42%”, the “Pulse Frequency” value (narcotized cat; 1.0 mg/kg i.v.) was -9% and the “Blood Pressure diast.” value (narcotized cat; 3.16 mg/kg i.v.) was -33%. The “Blood Pressure syst.” value (narcotized cat; 3.16 mg/kg i.v.) was -19%, the “Myocardial Contractility” value (narcotized cat; 3.16 mg/kg i.v.) was “+51%” and the “Pulse Frequency” value (narcotized cat; 3.16 mg/kg i.v.) was -15%.

Work on Nc1cc(-c2ccncc2)c[nH]c1=O [Compound B, 3-Amino-5-(4-pyridyl)-2-pyridone, reference compound] yielded an activation at 1000 µM [1, 3] of 20%, an activation at 100 µM [1] of 2% and an activation at 1000 µM [2, 3] of 21%. For the same compound, the activation at 100 µM [2] was 4%, the “Blood Pressure diast.” value (narcotized cat; 0.1 mg/kg i.v.) was -3% and the “Blood Pressure syst.” value (narcotized cat; 0.1 mg/kg i.v.) was -3%. For the same compound, the “Myocardial Contractility” value (narcotized cat; 0.1 mg/kg i.v.) was “+5%”, the “Pulse Frequency” value (narcotized cat; 0.1 mg/kg i.v.) was 0% and the “Blood Pressure diast.” value (narcotized cat; 0.316 mg/kg i.v.) was -4%. The “Blood Pressure syst.” value (narcotized cat; 0.316 mg/kg i.v.) was -2%, the “Myocardial Contractility” value (narcotized cat; 0.316 mg/kg i.v.) was “+25%” and the “Pulse Frequency” value (narcotized cat; 0.316 mg/kg i.v.) was “+1%”. For the same compound, the “Blood Pressure diast.” value (narcotized cat; 1.0 mg/kg i.v.) was -22%, the “Blood Pressure syst.” value (narcotized cat; 1.0 mg/kg i.v.) was -15% and the “Myocardial Contractility” value (narcotized cat; 1.0 mg/kg i.v.) was “+40%”. For the same compound, the “Pulse Frequency” value (narcotized cat; 1.0 mg/kg i.v.) was 0%, the “Blood Pressure diast.” value (narcotized cat; 3.16 mg/kg i.v.) was -51% and the “Blood Pressure syst.” value (narcotized cat; 3.16 mg/kg i.v.) was -35%. The “Myocardial Contractility” value (narcotized cat; 3.16 mg/kg i.v.) was “+30%” and the “Pulse Frequency” value (narcotized cat; 3.16 mg/kg i.v.) was -20%.

For Cl.O=c1ccc(-c2ccc(Cn3cccn3)s2)nn1CCN1CCOCC1 [D, 2-(2-Morpholino-ethyl)-6-[5-(pyrazol-1-yl-methyl)-thien-2-yl]-3(2H)-pyridazinon-hydrochloride], the “3H-Flunitrazepam % Inhibition” value (benzodiazepin-receptors; 1 × 10^-4 mole/l) was 49%, the “3H-Flunitrazepam % Inhibition” value (benzodiazepin-receptors; 1 × 10^-6 mole/l) was 2% and the IC50 (benzodiazepin-receptors) was 60 µM. For the same compound, the “3H-Imipramin % Inhibition” value (imipramin-fixation sites; 1 × 10^-4) was 87%, the “3H-Imipramin % Inhibition” value (imipramin-fixation sites; 1 × 10^-6 mole/l) was 34% and the IC50 (imipramin-fixation sites) was 20 µM.

In the case of Cl.O=c1ccc(-c2ccc(Cn3ccnc3)s2)nn1CCN1CCOCC1 [E, 6-[5-(Imidazol-1-yl-methyl)-thien-2-yl]-2-(2-morpholino-ethyl)-3(2H)-pyridazinon-hydrochloride], the “3H-Flunitrazepam % Inhibition” value (benzodiazepin-receptors; 1 × 10^-4 mole/l) is reported as 74%, the “3H-Flunitrazepam % Inhibition” value (benzodiazepin-receptors; 1 × 10^-6 mole/l) is reported as 19% and the IC50 (benzodiazepin-receptors) is reported as 9 µM. The “3H-Imipramin % Inhibition” value (imipramin-fixation sites; 1 × 10^-4) was 40% and the “3H-Imipramin % Inhibition” value (imipramin-fixation sites; 1 × 10^-6 mole/l) was 4%.

With Cl.O=c1ccc(-c2ccc(Cn3ccnc3)s2)nn1CCN1CCCCC1 [F, 6-[5-(Imidazol-1-yl-methyl)-thien-2-yl]-2-(2-piperidino-ethyl)-3(2H)-pyridazinon-hydrochloride] the “3H-Flunitrazepam % Inhibition” value (benzodiazepin-receptors; 1 × 10^-4 mole/l) was 66%, the “3H-Flunitrazepam % Inhibition” value (benzodiazepin-receptors; 1 × 10^-6 mole/l) was 12% and the IC50 (benzodiazepin-receptors) was 90 µM. For the same compound, the “3H-Imipramin % Inhibition” value (imipramin-fixation sites; 1 × 10^-4) was 62%, the “3H-Imipramin % Inhibition” value (imipramin-fixation sites; 1 × 10^-6 mole/l) was 7% and the IC50 (imipramin-fixation sites) was 7 µM.

In the case of Cl.O=c1ccc(-c2ccc(Cn3ccnc3)s2)nn1CCCN1CCCCC1 [G, 6-[5-(Imidazol-1-yl-methyl)-thien-2-yl]-2-(3-piperidino-propyl)-3(2H)-pyridazinon-hydrochloride], the “3H-Flunitrazepam % Inhibition” value (benzodiazepin-receptors; 1 × 10^-4 mole/l) is reported as 40%, the “3H-Flunitrazepam % Inhibition” value (benzodiazepin-receptors; 1 × 10^-6 mole/l) is reported as 4% and the “3H-Imipramin % Inhibition” value (imipramin-fixation sites; 1 × 10^-4) is reported as 86%. For the same compound, the “3H-Imipramin % Inhibition” value (imipramin-fixation sites; 1 × 10^-6 mole/l) was 27% and the IC50 (imipramin-fixation sites) was 3 µM.

Cc1cc(-c2ccccc2)nn(CCN2CCOCC2)c1=O.Cl [H, 4-Methyl-2-(2-morpholino-ethyl)-6-phenyl-3(2H)-pyridazinon-hydrochloride, reference compound] was tested, and the “3H-Flunitrazepam % Inhibition” value (benzodiazepin-receptors; 1 × 10^-4 mole/l) was 14%, the “3H-Flunitrazepam % Inhibition” value (benzodiazepin-receptors; 1 × 10^-6 mole/l) was 0% and the “3H-Imipramin % Inhibition” value (imipramin-fixation sites; 1 × 10^-4) was 36%. For the same compound, the “3H-Imipramin % Inhibition” value (imipramin-fixation sites; 1 × 10^-6 mole/l) was 8%.

CN1CCN=C(c2ccccc2)c2cc(Cl)ccc21 [Medazepam, reference compound] gave an IC50 (benzodiazepin-receptors) of 3.9 µM.
